Reference: patent US20150105252A1, “SUBSTITUTED PYRAZOLES AS HERBICIDES” (E I DU PONT DE NEMOURS AND COMPANY, priority 2013, published 2015)

What was measured:
oat, wild = experiment: Test C postemergence; assay type: in vivo, Avena fatua; settings: for Oat, Wild plant response rating: scale 0 to 100
Source text: (§1) Seeds of plant species selected from blackgrass (Alopecurus myosuroides), ryegrass, Italian (Italian ryegrass, Lolium multiflorum), wheat (winter wheat, Triticum aestivum), galium (catchweed bedstraw, Galium aparine), corn (Zea mays), crabgrass, large (large crabgrass, Digitaria sanguinalis), foxtail, giant (giant foxtail, Setaria faberii), johnsongrass (Sorghum halepense), lambsquarters (Chenopodium album), morningglory (Ipomoea coccinea), nutsedge, yellow (yellow nutsedge, Cyperus esculentus), pigweed (redroot pigweed, Amaranthus retroflexus), ragweed (common ragweed, Ambrosia elation), soybean (Glycine max), barnyardgrass (Echinochloa crus-galli), oilseed rape (Brassica napus), waterhemp (common waterhemp, Amaranthus rudis), oat, wild (wild oat, Avena fatua), kochia (Kochia scoparia), Surinam grass (Brachiaria decumbens), foxtail, green (green foxtail, Setaria viridis), goosegrass (Eleusine indica), bromegrass, downy (downy bromegrass, Bromus tectorum), nightshade (eastern black nightshade, Solanum ptycanthum), cocklebur (common cocklebur, Xanthium strumarium), cupgrass, woolly (woolly cupgrass, Eriochloa villosa), bermudagrass (Cynodon dactylon), sunflower, (common oilseed sunflower, Helianthus annuus), Russian thistle (Salsola kali), and velvetleaf (Abutilon theophrasti) were planted into a blend of loam soil and sand and treated preemergence with test chemicals formulated in a non-phytotoxic solvent mixture which included a surfactant.
(§2) At the same time, plants selected from these crop and weed species and also chickweed (common chickweed, Stellaria media), canarygrass (littleseed canarygrass, Phalaris minor), and deadnettle (henbit deadnettle, Lamium amplexicaule), were planted in pots containing Redi-Earth® planting medium (Scotts Company, 14111 Scottslawn Road, Marysville, Ohio 43041) comprising spaghnum peat moss, vermiculite, wetting agent and starter nutrients and treated with postemergence applications of test chemicals formulated in the same manner. Plants ranged in height from 2 to 18 cm (1- to 4-leaf stage) for postemergence treatments. Treated plants and controls were maintained in a greenhouse for 13 to 15 days, after which time all species were compared to controls and visually evaluated. Plant response ratings, summarized in Table C, are based on a scale of 0 to 100 where 0 is no effect and 100 is complete control. A dash (-) response means no test result.

morningglory = experiment: Test A postemergence; assay type: in vivo, Ipomoea spp.
Method in brief: (§3)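 Pre- and postemergence greenhouse test; loam+sand; cpd in non-phytotox. solvent/surfactant; post at 1–2 leaf, 2–10 cm; visual score ~10 d, 0 = none, 100 = complete control.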

crabgrass, large = experiment: Test C preemergence; assay type: in vivo, Digitaria sanguinalis; settings: for Plant response rating (scale of 0 to 100), Crabgrass, Large: Preemergence, 250 g ai/ha; for Crabgrass, Large plant response rating / Plant response rating, Crabgrass, Large: preemergence; for Plant response rating, Crabgrass, Large: 62 g ai/ha, scale 0 to 100, 0 = no effect, 100 = complete control
Source text: as §1, §2

foxtail, giant [1] = experiment: Test A postemergence; assay type: in vivo, Setaria faberii
Method in brief: as §3

foxtail, giant [2] = experiment: Test C postemergence; assay type: in vivo, Setaria faberii; settings: for Foxtail, Giant plant response rating: scale 0 to 100
Source text: as §1, §2

galium = experiment: Test C postemergence; assay type: in vivo, Galium aparine; settings: for Galium plant response rating: scale 0 to 100
Source text: as §1, §2

johnsongrass = experiment: Test C postemergence; assay type: in vivo, Sorghum halepense; settings: for Johnsongrass plant response rating: scale 0 to 100
Source text: as §1, §2

foxtail, giant [3] = experiment: Test C preemergence; assay type: in vivo, Setaria faberii; settings: for Plant response rating (scale of 0 to 100), Foxtail, Giant: Preemergence, 250 g ai/ha; for Foxtail, Giant plant response rating / Plant response rating, Foxtail, Giant: preemergence; for Plant response rating, Foxtail, Giant: 62 g ai/ha, scale 0 to 100, 0 = no effect, 100 = complete control
Source text: as §1, §2

foxtail, giant [4] = experiment: Test A preemergence; assay type: in vivo, Setaria faberii; settings: 0 to 100 scale
Method in brief: as §3

chickweed = experiment: Test C postemergence; assay type: in vivo, Stellaria media; settings: for Chickweed plant response rating: scale 0 to 100
Source text: as §1, §2

[5] = postemergence, 250 g ai/ha, scale 0 to 100 (0 no effect, 100 complete control)
[6] = postemergence, 62 g ai/ha, scale 0 to 100, 0 no effect, 100 complete control
[7] = postemergence, 125 g ai/ha, scale 0 to 100, 0 no effect, 100 complete control
[8] = Postemergence, 500 g ai/ha, visual rating after approx. 10 days, 0 to 100 scale (0 no effect, 100 complete control)
[9] = postemergence, 125 g ai/ha, about 10 days, visual rating on 0 to 100 scale (0 no effect, 100 complete control)
[10] = 31 g ai/ha, scale 0 to 100 (0 no effect, 100 complete control), 13 to 15 days
[11] = 125 g ai/ha, scale 0 to 100, 0 is no effect, 100 is complete control
[12] = Preemergence, 500 g ai/ha, 0 no effect, 100 complete control
[13] = preemergence, 125 g ai/ha, visual injury, approx. 10 days
[14] = Postemergence, 1000 g ai/ha, visual rating after approx. 10 days, 0 to 100 scale (0 no effect, 100 complete control)

Row | Compound | Oat, Wild plant response rating (oat, wild; Postemergence, 31 g ai/ha) | Plant response rating, Oat, Wild (oat, wild; [5]) | Plant response rating, Oat, Wild (oat, wild; [6]) | Plant response rating, Oat, Wild (oat, wild; [7]) | Morningglory plant response rating (morningglory; [8]) | Morningglory plant response rating (morningglory; [9]) | Plant response rating (scale of 0 to 100), Crabgrass, Large (crabgrass, large) | Crabgrass, Large plant response rating (crabgrass, large; [10]) | Plant response rating, Crabgrass, Large (crabgrass, large; 13 to 15 days) | Crabgrass, Large plant response rating (crabgrass, large; [11]) | Foxtail, Giant plant response rating (foxtail, giant [1]; [8]) | Foxtail, Giant plant response rating (foxtail, giant [2]; Postemergence, 31 g ai/ha) | Plant response rating, Foxtail, Giant (foxtail, giant [2]; [5]) | Plant response rating, Foxtail, Giant (foxtail, giant [2]; [7]) | Johnsongrass plant response rating (johnsongrass; Postemergence, 31 g ai/ha) | Plant response rating, Johnsongrass (johnsongrass; [5]) | Plant response rating, Johnsongrass (johnsongrass; [7]) | Chickweed plant response rating (chickweed; Postemergence, 31 g ai/ha) | Plant response rating, Chickweed (chickweed; [5]) | Plant response rating, Chickweed (chickweed; [7]) | also measured
1 | CCc1cc(C(=O)NOC(C)C)nn1Cc1cccc(OC(F)(F)F)c1 [Compound 70] | 20 | 35 | 20 | 30 | 100 | 100 | 100 | 95 | 98 | 98 | 90 | 5 | 25 | 15 | 0 | 75 | 10 | 45 | 65 | 50 | Foxtail, Giant plant response rating (foxtail, giant [1]; [9]): 90; Plant response rating, Foxtail, Giant (foxtail, giant [2]; [6]): 10; Galium plant response rating (galium; Postemergence, 31 g ai/ha): 70; Plant response rating, Galium (galium; [5]): 90; Plant response rating, Galium (galium; [6]): 70; Plant response rating, Galium (galium; [7]): 75; Plant response rating, Johnsongrass (johnsongrass; [6]): 0; Plant response rating (scale of 0 to 100), Foxtail, Giant (foxtail, giant [3]): 98; Foxtail, Giant plant response rating (foxtail, giant [3]; [10]): 65; Plant response rating, Foxtail, Giant (foxtail, giant [3]; 13 to 15 days): 75; Foxtail, Giant plant response rating (foxtail, giant [3]; [11]): 90; Foxtail, Giant plant response rating (foxtail, giant [4]; [12]): 100; Foxtail, Giant plant response rating (foxtail, giant [4]; [13]): 90; Plant response rating, Chickweed (chickweed; [6]): 45
2 | CCCNC(=O)c1cc(CC)n(Cc2cccc(OC(F)(F)F)c2)n1 [Compound 27] | 10 | 15 | 10 | 15 | – | – | – | – | – | – | – | 0 | 20 | 10 | 0 | 5 | 5 | 20 | 75 | 40 | Morningglory plant response rating (morningglory; [14]): 100; Foxtail, Giant plant response rating (foxtail, giant [1]; [14]): 70; Plant response rating, Foxtail, Giant (foxtail, giant [2]; [6]): 0; Plant response rating, Johnsongrass (johnsongrass; [6]): 0; Foxtail, Giant plant response rating (foxtail, giant [4]; Preemergence, 1000 g ai/ha, 0 no effect, 100 complete control): 90; Plant response rating, Chickweed (chickweed; [6]): 20
3 | CCONC(=O)c1cc(CC)n(Cc2cccc(OC(F)(F)F)c2)n1 [Compound 72] | 5 | 35 | – | 20 | 90 | 80 | 98 | 55 | 95 | 98 | 90 | 5 | 15 | 5 | 0 | 0 | 0 | 40 | 80 | 50 | Oat, Wild plant response rating (oat, wild; postemergence, 62 g ai/ha): 5; Foxtail, Giant plant response rating (foxtail, giant [1]; [9]): 80; Foxtail, Giant plant response rating (foxtail, giant [2]; postemergence, 62 g ai/ha): 5; Galium plant response rating (galium; Postemergence, 31 g ai/ha): 45; Galium plant response rating (galium; postemergence, 62 g ai/ha): 70; Plant response rating, Galium (galium; [5]): 80; Plant response rating, Galium (galium; [7]): 70; Johnsongrass plant response rating (johnsongrass; postemergence, 62 g ai/ha): 0; Plant response rating (scale of 0 to 100), Foxtail, Giant (foxtail, giant [3]): 100; Foxtail, Giant plant response rating (foxtail, giant [3]; [10]): 65; Plant response rating, Foxtail, Giant (foxtail, giant [3]; 13 to 15 days): 80; Foxtail, Giant plant response rating (foxtail, giant [3]; [11]): 85; Foxtail, Giant plant response rating (foxtail, giant [4]; [12]): 100; Foxtail, Giant plant response rating (foxtail, giant [4]; [13]): 70; Chickweed plant response rating (chickweed; postemergence, 62 g ai/ha): 40
